Data on eight compounds can be found in patent publication US20230416258A1, “BENZ[…], AND PREPARATION METHOD THEREFOR AND USE THEREOF” (CHINA PHARMACEUTICAL UNIVERSITY, priority 2020, published 2023).

A word on the EC50: it is the concentration needed to bring the measured effect to its halfway point. By half-life is commonly meant the time needed for the level to fall by half in the phase considered.

Like-named read-outs stand apart in the source and are kept apart here.

For data set [1], the system named is GABA-activated Cl− current (GABAA receptor) in HEK 293T cells. Put plainly: Effect of drugs on GABA-activated current in cells by cell patch clamp. Format: cell-based. To be noted: for Enhancement percentage Emax for 2 μM GABA current (within 3-30 μM): corresponding concentration 20 μM. As to the method:
Test compounds were dissolved at various concentrations in an extracellular buffer (140 mM NaCl, 4.7 mM KCl, 10 mM HEPES, 2 mM CaCl2), 10 mM glucose, 1 mM MgCl2, pH 7.4). HEK 293T cells were seeded on glass coverslips and cultured in DMEM media at 37° C. with 5% CO2 for 24 h. GABA Cl^− current was subjected to whole cell recording using an HEKA EPC 10USB patch clamp amplifier. 2 μM GABA was used for exciting Cl^− current, with the membrane potential clamped at −60 mV. The cells were treated with the test compound and 2 μM GABA simultaneously, and the induction effect on and Emax of Cl^− current in the same cell were recorded.
Maximum enhancement percentage Emax for 2 μM GABA current and corresponding concentration (μM): 100% for normal humans. The greater the percentage, the lower the corresponding concentration, and the greater the depth of anesthesia.
In general terms: In patch-clamp work, channel activity is measured electrically.

Data set [2] has as its system SD rats. Put plainly: Test for drug-induced disappearance of righting reflex in rats. Format: in vivo. The settings on record: single rapid bolus via tail vein. An excerpt:
In anesthetic drug experiments, latency generally refers to the time from the start of administration to the loss of consciousness of the subject. The shorter latency is preferred, indicating a rapid onset of action after administration. The duration of anesthesia generally refers to the duration of time from the loss of consciousness to the restoration of consciousness of the subject. The duration of the drug will vary from animal model to animal species. Too long anesthesia may produce adverse cardiovascular and respiratory responses, such as adverse neurological effects to the subject, including sleepiness and dizziness; meanwhile, too short duration of anesthesia may affect the anesthesia effect, causing problems such as increase of anesthesia dosage during the operation.
SD rats (male, 200-280 g) were randomly grouped and subjected to a single administration by rapid bolus via the tail vein. The latency and duration of righting reflex in the rats were recorded.

The subject of a further data set is KM mice. Put plainly: Test for drug-induced disappearance of righting reflex in mice. Format: in vivo. To be noted: single rapid bolus via tail vein. A digest of the protocol: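 Latency to, and duration of, righting reflex loss were recorded after one fast tail-vein bolus. Animals: randomized female KM mice weighing 18–25 g.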
Data set [3] relates to SD rats. Put plainly: Induction of anesthesia in rats by continuous infusion of drug for 20 min. Format: in vivo. To be noted: initial dose 20 mg/kg bolus, maintenance dose 0.2 (mg/kg)/min for 20 min, after infusion completed. As to the method: SD rats (male, 200-280 g) were randomly grouped and subjected to administration of an initial dose by rapid bolus via the tail vein, followed by a continuous infusion with a maintenance dose for 20 min.
After the infusion was completed, the duration of the righting reflex and the time from wake-up to recovery in rats were recorded.

A further data set relates to hCMEC/D3 cells. Put plainly: Rate of drug passing through in vitro blood-brain barrier (Transwell). The settings on record: hCMEC/D3 monolayer, compound 0.1 mg/mL. Format: in vitro ADME. As to the method:
A Transwell device (pore size: 5.0 μm) was placed in a 24-well cell culture well; then hCMEC/D3 cells at 1×10^5 cells/mL were transferred to the upper microwells of Transwell at 150 μL/well, and cell culture medium was added to the lower microwells. After the bottom was covered by a single layer of the cells, the medium in the wells was replaced with EBM-2 complete medium containing 1% FBS, and the cells were cultured in a CO2 incubator for 10 days until a fully dense single layer of the cells was formed. When a fully dense single layer of the cells was formed, the compound at 0.1 mg/mL was added to the lower medium, and after 5 min, the concentration of the compound in the upper medium was measured to calculate the permeability:
Pcompound%=Cupper compound/Clower compound×100%

Data set [4] can be described thus: In vitro plasma half-life of drug. Format: in vitro ADME, SD rats. The settings on record: SD rat plasma, 37° C.; for half-life at 0.4 mg/mL: plasma (heparin sodium). Here is the method:
Preparation of plasma: after the SD rats were fasted and kept with water for 12 h, blood was collected through orbital venous plexus. The freshly collected blood was added into a centrifuge tube containing heparin sodium and centrifuged at 5000 rpm for 10 min at 4° C. The supernatant was slowly pipetted and subpackaged. Finally, the collected SD rat plasma was sealed, marked, and stored at −20° C. for later use.
Preparation of target compound sample: the target compound was precisely weighed by an analytical balance and prepared into a stock solution at a concentration of 2 mg/mL (solvent: Vacetone:VTween 80:Vnormal saline=1:1:3) for later use.
Determination of in vitro half-life of target compound sample: 20 μL of test compound stock solution and 80 μL of rat plasma were mixed uniformly. Nine parallel ep tubes were taken, marked as corresponding test tubes of 0 min, 1 min, 2 min, 3 min, 5 min, 10 min, 15 min, 20 min, and 30 min, respectively, and placed in a water bath at 37° C. for incubation for 0 min, 1 min, 2 min, 3 min, 5 min, 10 min, 15 min, 20 min, and 30 min, respectively. 50 μL of mixed solution were taken from the corresponding ep tube at each time point, and […] of acetonitrile was added for precipitating protein. The mixture was vortexed for 10 min using a mixer and centrifuged at 12000 rpm for 15 min. Then, the supernatant was centrifuged at 12000 rpm for 10 min. The optimal detection method for the target compound in the MRM mode was determined using Intellistat software in UPLC-MS/MS, the peak area of the corresponding mass spectrum was integrated, and the plasma half-life of the compound was calculated.

Setting [5] is: read-out: Positive enhancement EC50 (μM) for 2 μM GABA-induced current, −60 mV.

For `COC(=O)CC[C@@H]1N=C(c2ccccc2)c2cc(Cl)ccc2-n2c(SC)nnc21` [Compound 102, methyl (S)-3-(8-chloro-1-(methylthio)-6-phenyl-4H-benzo[f][1,2,4]triazolo[4,3-a][1,4]diazepin-4-yl)propionate], the EC50 in data set [1] (setting [5]) came out at 0.48 µM. The “Enhancement percentage Emax for 2 μM GABA current (within 3-30 μM)” value (“Enhancement percentage Emax” below) in data set [1] (−60 mV) is recorded as 291% (20 μM). Moreover, the Latency is reported as 0.37 min in the data set on SD rats [2], 1.13 min with KM mice (30 mg/kg) and 0.39 min in the data set on KM mice (60 mg/kg). Further, the Duration in the data set on KM mice (30 mg/kg) stood at 17.24 min; in the data set with KM mice (60 mg/kg), 7.47 min. Further, the Duration of anesthesia in the data set on SD rats [3] came to 4.27 min. Also, the “Time from wake-up to recovery” value with SD rats [3] worked out at 25.5 min. Also, in the data set on hCMEC/D3 cells, the “In vitro blood-brain barrier, compound permeability at 5 min” value (“In vitro blood-brain barrier” for short) is 87.1%. The half-life at 0.4 mg/mL in data set [4] stood at 16.2 s.
On to `COC(=O)CC[C@@H]1N=C(c2ccccc2F)c2cc(Br)ccc2-n2c(S)nnc21` [Compound 4, methyl (S)-3-(8-bromo-6-(2-fluorophenyl)-1-mercapto-4H-benzo[f][1,2,4]triazolo[4,3-a][1,4]diazepin-4-yl)propionate], for which the EC50 in data set [1] (setting [5]) was found to be 0.69 µM. Moreover, the “Enhancement percentage Emax” value in data set [1] (−60 mV) was 252% (20 μM). This compound also returned a Latency in the data set on SD rats [2] of 0.35 min. In the data set on KM mice (30 mg/kg), this compound registered a Duration of 9.21 min and a Latency of 0.88 min. Moreover, in the data set with SD rats [3], the Duration of anesthesia turned out to be 5.21 min and the “Time from wake-up to recovery” value is 15.6 min. In the data set with hCMEC/D3 cells, the “In vitro blood-brain barrier” value was 68.6%. The half-life at 0.4 mg/mL in data set [4] stood at 104 s.
Regarding `COC(=O)CC[C@@H]1N=C(c2ccccc2F)c2cc(Cl)ccc2-n2c1n[nH]c2=S` [Tautomer of compound 1, methyl (S)-3-(8-chloro-6-(2-fluorophenyl)-1-thio-2,4-dihydro-1H-benzo[f][1,2,4]triazolo[4,3-a][1,4]diazepin-4-yl)propionate], in data set [1] (2 μM GABA, −60 mV, read-out: Positive enhancement EC50 (μM) for 2 μM GABA-induced current), the EC50 is 0.72 µM. In addition, the “Enhancement percentage Emax” value in data set [1] (−60 mV) was 234% (20 μM). In the data set on SD rats [2], this compound yielded a Duration of 11.03 min and a Latency of 0.68 min. For the same compound, in the data set on KM mice (30 mg/kg), the Duration is recorded as 3.47 min and the Latency was found to be 0.21 min. In the data set on SD rats [3], the Duration of anesthesia is listed as 3.29 min and the “Time from wake-up to recovery” value is on record as 9.6 min. Further, the “In vitro blood-brain barrier” value in the data set on hCMEC/D3 cells is reported as 76.8%. In addition, in data set [4], the “In vitro plasma half-life” value was 279 s.
For the compound `COC(=O)CC[C@@H]1N=C(c2ccccc2Cl)c2cc(Br)ccc2-n2c(SCCCN3CCN(CCO)CC3)nnc21` [Compound 97, methyl (S)-3-(8-bromo-6-(2-chlorophenyl)-1-((3-(4-(2-hydroxyethyl)piperazin-1-yl)propyl)thio)-4H-benzo[f][1,2,4]triazolo[4,3-a][1,4]diazepin-4-yl)propionate], in data set [1] (setting [5]), the 50% effective concentration (EC50) was 0.84 µM. Further, in data set [1] (−60 mV), the “Enhancement percentage Emax” value is on record as 238% (20 μM). This compound displayed a Latency in the data set on SD rats [2] of 0.18 min. In the data set on KM mice (60 mg/kg), this compound gave a Duration of 17.07 min and a Latency of 0.93 min. In addition, in the data set on SD rats [3], the Duration of anesthesia is given as 6.43 min and the “Time from wake-up to recovery” value came out at 17.4 min. In the data set with hCMEC/D3 cells, the “In vitro blood-brain barrier” value worked out at 84.6%. This compound also yielded a half-life at 0.4 mg/mL in data set [4] of 36.6 s.
With `COC(=O)CC[C@@H]1N=C(c2ccccc2Cl)c2cc(Br)ccc2-n2c(SCCN)nnc21` [Compound 36, methyl (S)-3-(8-bromo-6-(2-chlorophenyl)-1-((2-aminoethyl)thio)-4H-benzo[f][1,2,4]triazolo[4,3-a][1,4]diazepin-4-yl)propionate], in data set [1] (setting [5]), the half-maximal effective concentration (EC50) amounted to 0.58 µM. The “Enhancement percentage Emax” value in data set [1] (−60 mV) is given as 227% (20 μM). For the same compound, the Latency with SD rats [2] is reported as 0.28 min. In the data set on KM mice (60 mg/kg), this compound registered a Duration of 8.82 min and a Latency of 0.34 min. For the same compound, in the data set with SD rats [3], the Duration of anesthesia is recorded as 9.37 min and the “Time from wake-up to recovery” value came to 17.5 min. Further, the “In vitro blood-brain barrier” value in the data set with hCMEC/D3 cells turned out to be 71.6%. This compound also yielded a half-life at 0.4 mg/mL in data set [4] of 34.2 s.
On to `COC(=O)CC[C@@H]1N=C(c2ccccc2F)c2cc([N+](=O)[O-])ccc2-n2c(SCCCN(C)C)nnc21` [Compound 59, methyl (S)-3-(8-nitro-1-((3-(dimethylamino)propyl)thio)-6-(2-fluorophenyl)-4H-benzo[f][1,2,4]triazolo[4,3-a][1,4]diazepin-4-yl)propionate], for which, in data set [1] (setting [5]), the EC50 is 0.79 µM. For the same compound, in data set [1] (−60 mV), the “Enhancement percentage Emax” value is given as 252% (20 μM). This compound also returned a Latency with SD rats [2] of 0.22 min. In the data set on KM mice (60 mg/kg), this compound returned a Duration of 9.62 min and a Latency of 0.37 min. Further, in the data set on SD rats [3], the Duration of anesthesia is listed as 4.89 min and the “Time from wake-up to recovery” value is 31.3 min. For the same compound, the “In vitro blood-brain barrier” value in the data set with hCMEC/D3 cells is 75.7%. Further, the half-life at 0.4 mg/mL in data set [4] was 15 s.
On to `COC(=O)CC[C@@H]1N=C(c2ccccc2Cl)c2cc([N+](=O)[O-])ccc2-n2c(SCCN3CCOCC3)nnc21` [Compound 83, methyl (S)-3-(8-nitro-6-(2-chlorophenyl)-1-((2-morpholinoethyl)thio)-4H-benzo[f][1,2,4]triazolo[4,3-a][1,4]diazepin-4-yl)propionate], for which, in data set [1] (setting [5]), the EC50 came out at 0.57 µM. Besides, the “Enhancement percentage Emax” value in data set [1] (−60 mV) is reported as 287% (20 μM). In addition, the Latency with SD rats [2] is given as 0.16 min. In the data set on KM mice (30 mg/kg), the Duration worked out at 7.89 min and the Latency was determined as 0.28 min. In the data set on KM mice (60 mg/kg), the Duration came out at 14.58 min and the Latency is reported as 0.19 min. Further, in the data set on SD rats [3], the Duration of anesthesia came out at 28.66 min and the “Time from wake-up to recovery” value is on record as 16.3 min. The “In vitro blood-brain barrier” value in the data set with hCMEC/D3 cells is 77.3%. The half-life at 0.4 mg/mL in data set [4] came out at 16.8 s.
Take `COC(=O)CC[C@@H]1N=C(c2ccccc2Cl)c2cc(Br)ccc2-n2c(SCCN3CCOCC3)nnc21` [Compound 82, methyl (S)-3-(8-bromo-6-(2-chlorophenyl)-1-((2-morpholinoethyl)thio)-4H-benzo[f][1,2,4]triazolo[4,3-a][1,4]diazepin-4-yl)propionate]: the concentration giving a half-maximal response (EC50) in data set [1] (setting [5]) was found to be 0.39 µM. In addition, the “Enhancement percentage Emax” value in data set [1] (−60 mV) was 311% (20 μM). Further, in the data set on SD rats [2], the Latency turned out to be 0.41 min. Moreover, in the data set with KM mice (30 mg/kg), the Duration came to 8.37 min and the Latency turned out to be 0.31 min. Moreover, in the data set with SD rats [3], the Duration of anesthesia amounted to 10.27 min and the “Time from wake-up to recovery” value is recorded as 20.8 min. In the data set with hCMEC/D3 cells, the “In vitro blood-brain barrier” value was 80.1%. In data set [4], this compound came in with a half-life at 0.4 mg/mL of 22.2 s.
